How the values were obtained:
VR1 (human) = target: T1, VR1 (human) (Homo sapiens, UniProt Q8NER1); test: Functional testing on vanilloid receptor VR1, FLIPR Ca2+ inflow assay (CHO K1 cells stably transfected with the VR1 gene); assay type: cell-based; details: test compound 10 μM; for inhibition at 10 µM / activation at 10 µM: CHO-K1; for inhibition at 10 µM / VR1 (human) (% inhibition compared to 10 μM CP): 5 min incubation, then 100 nM capsaicin, relative to maximum achievable inhibition with 10 μM capsaicin; for inhibition at 10 µM: read-out: VR1 (human) (% inhibition compared to 10 μM CP); for activation at 10 µM / VR1 (human) (% stimulation compared to 10 μM CP): Ca2+ inflow relative to signal of 10 μM capsaicin (CP); for activation at 10 µM: read-out: VR1 (human) (% stimulation compared to 10 μM CP)
T1 construct: expressed in transfected cells; host or cells: CHO K1 cells (ECACC)
Description: II. Functional Testing Carried out on the Vanilloid Receptor (VR1)
The agonistic or antagonistic effect of the substances to be tested can also be determined on the vanilloid receptor (VR1) using the following assay. According to this assay, the Ca^2+ inflow is quantified through the channel using a Ca^2+-sensitive dye (type Fluo-4, Molecular Probes Europe BV, Leiden, Netherlands) in a fluorescent imaging plate reader (FLIPR, Molecular Devices, Sunnyvale, USA).
Chinese hamster ovary cells (CHO K1 cells, European Collection of Cell Cultures (ECACC) United Kingdom) were stably transfected with the VR1 gene. For functional testing, these cells were plated out on poly-D-lysine-coated black 96 well plates having a clear base (BD Biosciences, Heidelberg, Germany) at a density of 25,000 cells/well. The cells were incubated overnight at 37° C. and 5% CO2 in a culture medium (Ham's F12 nutrient mixture, 10-% by volume of FCS (foetal calf serum), 18 μg/ml L-proline). The next day the cells were incubated with Fluo-4 (Fluo-4 2 μM, 0.01% by volume of Pluronic F127, Molecular Probes in HBSS (Hank's buffered saline solution), Gibco Invitrogen GmbH, Karlsruhe, Germany) for 30 minutes at 37° C. Subsequently, the plates were washed 3 times with HBSS buffer and after further incubation for 15 minutes at room temperature used for Ca^2+ measurement in a FLI PR assay. The Ca^2+-dependent fluorescence was measured before and after the addition of the substances to be tested (λex wavelength=488 nm, λem=540 nm). Quantification was carried out by measuring the highest fluorescence intensity (FC, Fluorescence Counts) over time.
The FLIPR protocol consists of 2 substance additions. First the compounds to be tested (10 μM) were pipetted onto the cells and the Ca^2+ inflow was compared with the control (capsaicin 10 μM) (% activation based on the Ca^2+ signal after the addition of 10 μM capsaicin). After 5 minutes' incubation, 100 nM of capsaicin were administered and the Ca^2+ inflow was also determined.
Desensitising agonists and antagonists led to suppression of the Ca^2+ inflow. The % inhibition was calculated compared to the maximum achievable inhibition with 10 μM of capsaicin.

[1] = target: T2, rat-species vanilloid receptor 1 (VR1/TRPV1) (Rattus norvegicus, UniProt O35433); test: Functional testing on vanilloid receptor 1 (VR1/TRPV1), FLIPR Ca2+ inflow assay in rat dorsal root ganglia cells; assay type: cell-based; details: test compound 10 μM; for inhibition at 10 µM / VR1 (rat) (% inhibition compared to 10 μM CP): 5 min incubation, then 100 nM capsaicin, relative to maximum achievable inhibition with 10 μM capsaicin; for inhibition at 10 µM: read-out: VR1 (rat) (% inhibition compared to 10 μM CP); for activation at 10 µM / VR1 (rat) (% stimulation compared to 10 μM CP): Ca2+ inflow relative to signal of 10 μM capsaicin (CP); for activation at 10 µM: read-out: VR1 (rat) (% stimulation compared to 10 μM CP)
T2 construct: endogenous in cells; host or cells: primary cultured rat dorsal root ganglion cells
Description: I. Functional Testing Carried out on the Vanilloid Receptor 1 (VRI/TRPV1 Receptor)
The agonistic or antagonistic effect of the substances to be tested can be determined on the rat-species vanilloid receptor 1 (VR1/TRPV1) using the following assay. According to this assay, the Ca^2+ inflow is quantified through the receptor channel using a Ca^2+-sensitive dye (type Fluo-4, Molecular Probes Europe BV, Leiden, Netherlands) in a fluorescent imaging plate reader (FLIPR, Molecular Devices, Sunnyvale, USA).
Complete medium: 50 mL HAMS F12 nutrient mixture (Gibco Invitrogen GmbH, Karlsruhe, Germany) with
10% by volume of FCS (foetal calf serum, Gibco Invitrogen GmbH, Karlsruhe, Germany, […]);
2 mM L-glutamine (Sigma, Munich, Germany);
1% by weight of AA solution (antibiotic/antimyotic solution, PAA, Pasching, Austria) and 25 ng/ml NGF medium (2.5 S, Gibco Invitrogen GmbH, Karlsruhe, Germany)
Cell culture plate: Poly-D-lysine-coated, black 96 well plates having a clear base (96 well black/clear plate, BD Biosciences, Heidelberg, Germany) were additionally coated with laminin (Gibco Invitrogen GmbH, Karlsruhe, Germany), the laminin being diluted with PBS (Ca—Mg-free PBS, Gibco Invitrogen GmbH, Karlsruhe, Germany) to a concentration of 100 μg/mL. Aliquots having a laminin concentration of 100 μg/mL were removed and stored at −20° C. The aliquots were diluted with PBS in a ratio of 1:10 to 10 μg/mL laminin and in each case 50 μL of the solution were pipetted into a recess in the cell culture plate. The cell culture plates were incubated for at least two hours at 37° C., the excess solution was removed by suction-filtration and the recesses were each washed twice with PBS. The coated cell culture plates were stored with excess PBS which was not removed until just before the feeding of the cells.
Preparation of the Cells:
The vertebral column was removed from decapitated rats and placed immediately into cold HBSS buffer (Hank's buffered saline solution, Gibco Invitrogen GmbH, Karlsruhe, Germany), i.e. buffer located in an ice bath, mixed with 1% by volume (percent by volume) of an AA solution (antibiotic/antimyotic solution, PAA, Pasching, Austria). The vertebral column was cut longitudinally and removed together with fasciae from the vertebral canal. Subsequently, the dorsal root ganglia (DRG) were removed and again stored in cold HBSS buffer mixed with 1% by volume of an AA solution. The DRG, from which all blood remnants and spinal nerves had been removed, were transferred in each case to 500 μL of cold type 2 collagenase (PAA, Pasching, Austria) and incubated for 35 minutes at 37° C. After the addition of 2.5% by volume of trypsin (PAA, Pasching, Austria), incubation was continued for 10 minutes at 37° C. After complete incubation, the enzyme solution was carefully pipetted off and 500 μL of complete medium were added to each of the remaining DRG. The DRG were in each case suspended several times, drawn through cannulae No. 1, No. 12 and No. 16 using a syringe and transferred to a 50 mL Falcon tube which was filled up to 15 mL with complete medium. The contents of each Falcon tube was in each case filtered through a 70 μm Falcon filter element and centrifuged for 10 minutes at 1,200 rpm and room temperature. The resulting pellet was in each case taken up in 250 μL of complete medium and the number of cells determined.
The number of cells in the suspension was set to 3×10^5 per mL and 150 μL of this suspension were in each case introduced into a recess in the cell culture plates coated as described hereinbefore. In the incubator the plates were left for two to three days at 37° C., 5% by volume of CO2 and 95% relative humidity. […]

T2 sequence (O35433 whole entry): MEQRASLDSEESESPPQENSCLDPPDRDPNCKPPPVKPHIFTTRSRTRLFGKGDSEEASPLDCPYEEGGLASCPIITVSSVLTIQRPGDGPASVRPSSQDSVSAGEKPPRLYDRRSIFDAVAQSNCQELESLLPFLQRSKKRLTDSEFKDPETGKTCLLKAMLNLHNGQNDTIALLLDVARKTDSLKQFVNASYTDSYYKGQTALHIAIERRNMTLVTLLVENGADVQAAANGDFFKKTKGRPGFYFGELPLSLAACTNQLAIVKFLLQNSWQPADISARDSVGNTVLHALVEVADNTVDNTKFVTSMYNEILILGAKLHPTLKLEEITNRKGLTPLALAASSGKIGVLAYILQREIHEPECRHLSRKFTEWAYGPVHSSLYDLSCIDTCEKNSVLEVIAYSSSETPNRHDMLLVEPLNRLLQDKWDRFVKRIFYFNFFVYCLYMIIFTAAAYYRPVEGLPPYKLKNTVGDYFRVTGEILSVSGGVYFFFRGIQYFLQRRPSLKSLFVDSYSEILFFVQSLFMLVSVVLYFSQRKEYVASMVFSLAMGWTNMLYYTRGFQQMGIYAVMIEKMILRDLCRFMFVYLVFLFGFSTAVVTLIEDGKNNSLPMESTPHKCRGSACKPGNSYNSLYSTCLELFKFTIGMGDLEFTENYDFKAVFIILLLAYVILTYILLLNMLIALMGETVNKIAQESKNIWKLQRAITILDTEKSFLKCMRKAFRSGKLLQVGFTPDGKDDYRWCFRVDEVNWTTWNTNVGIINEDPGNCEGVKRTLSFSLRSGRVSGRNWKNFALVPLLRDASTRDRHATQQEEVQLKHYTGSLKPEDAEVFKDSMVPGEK
T1 sequence (Q8NER1 whole entry): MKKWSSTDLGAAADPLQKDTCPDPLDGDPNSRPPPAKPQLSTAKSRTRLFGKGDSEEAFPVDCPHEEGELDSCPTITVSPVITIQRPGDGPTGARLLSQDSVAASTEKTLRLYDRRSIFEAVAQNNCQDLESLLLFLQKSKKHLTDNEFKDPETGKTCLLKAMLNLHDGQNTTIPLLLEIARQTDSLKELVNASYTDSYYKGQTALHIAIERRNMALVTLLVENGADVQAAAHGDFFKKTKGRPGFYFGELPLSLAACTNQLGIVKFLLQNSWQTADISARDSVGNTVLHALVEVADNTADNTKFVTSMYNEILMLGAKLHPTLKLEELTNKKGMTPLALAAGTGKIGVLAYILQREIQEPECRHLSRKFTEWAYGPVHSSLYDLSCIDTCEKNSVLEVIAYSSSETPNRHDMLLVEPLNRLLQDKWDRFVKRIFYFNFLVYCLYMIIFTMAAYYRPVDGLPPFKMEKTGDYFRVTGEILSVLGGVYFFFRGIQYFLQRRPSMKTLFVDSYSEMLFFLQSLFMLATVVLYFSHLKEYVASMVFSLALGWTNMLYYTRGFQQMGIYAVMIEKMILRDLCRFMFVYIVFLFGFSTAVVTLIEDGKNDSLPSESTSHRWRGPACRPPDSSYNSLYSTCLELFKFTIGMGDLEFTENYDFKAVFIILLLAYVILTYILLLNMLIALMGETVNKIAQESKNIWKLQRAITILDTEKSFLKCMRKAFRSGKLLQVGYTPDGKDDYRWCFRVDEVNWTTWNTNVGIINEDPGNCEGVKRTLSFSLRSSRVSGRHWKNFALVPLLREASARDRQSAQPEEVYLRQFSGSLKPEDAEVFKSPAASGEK

SMILES | inhibition at 10 µM (VR1 (human)) | activation at 10 µM (VR1 (human)) | inhibition at 10 µM [1] | activation at 10 µM [1] | VR1 (human) (% inhibition compared to 10 μM CP) (VR1 (human)) | VR1 (human) (% stimulation compared to 10 μM CP) (VR1 (human)) | VR1 (rat) (% inhibition compared to 10 μM CP) [1] | VR1 (rat) (% stimulation compared to 10 μM CP) [1]
CC(C)c1ccccc1NC(=O)N1CCC2(CC1)CC(C(=O)N1CCN(c3ncccc3Cl)CC1)=NO2 [Example 61, 3-[4-(3-chloropyridin-2-yl)piperazine-1-carbonyl]-1-oxa-2,8-diazaspiro[4.5]dec-2-ene-8-carboxylic acid-(2-isopropylphenyl)amide] | -15.1% | 0.08% | 47% | 0.47% | – | – | – | –
O=C(Nc1cccc(Br)c1)N1CCC2(CC1)CC(C(=O)N1CCN(c3ncccc3Cl)CC1)=NO2 [Example 11, 3-[4-(3-chloropyridin-2-yl)piperazine-1-carbonyl]-1-oxa-2,8-diazaspiro[4.5]dec-2-ene-8-carboxylic acid-(3-bromophenyl)amide] | 37.3% | -0.15% | 41.3% | 11.4% | – | – | – | –
COc1ccc(CNC(=O)C2=NOC3(CCN(C(=O)Nc4ccc(C(F)(F)F)cc4)CC3)C2)cc1OC [Example 70, 1-oxa-2,8-diazaspiro[4.5]dec-2-ene-3,8-dicarboxylic acid-3-(3,4-dimethoxybenzylamide)-8-[(4-trifluoromethylphenyl)amide]] | – | – | – | – | −0.43% | −0.18% | 67.41% | 0.35%
O=C(Nc1ccc(Cl)cn1)C1=NOC2(CCN(C(=O)Nc3ccccc3Cl)CC2)C1 [Example 9, 1-oxa-2,8-diazaspiro[4.5]dec-2-ene-3,8-dicarboxylic acid-8-[(2-chlorophenyl)amide]-3-[(5-chloropyridin-2-yl)amide]] | – | – | – | – | 26.23% | −0.48% | 45.63% | 0.23%
CC(C)c1ccc(NC(=O)N2CCC3(CC2)CC(C(=O)N2CCN(c4ncccc4Cl)CC2)=NO3)cc1 [Example 63, 3-[4-(3-chloropyridin-2-yl)piperazine-1-carbonyl]-1-oxa-2,8-diazaspiro[4.5]dec-2-ene-8-carboxylic acid-(4-isopropylphenyl)amide] | 15.8% | 2.59% | 78.9% | 24.5% | – | – | – | –
COc1cccc(NC(=O)N2CCC3(CC2)CC(C(=O)NCc2ccc(OC)c(OC)c2)=NO3)c1 [Example 16, 1-oxa-2,8-diazaspiro[4.5]dec-2-ene-3,8-dicarboxylic acid-3-(3,4-dimethoxybenzylamide)-8-[(3-methoxyphenyl)amide]] | – | – | – | – | 0.77% | 0.40% | 8.65% | 0.00%
O=C(Nc1ccccc1F)N1CCC2(CC1)CC(C(=O)N1CCN(c3ncccc3Cl)CC1)=NO2 [Example 1, 3-[4-(3-chloropyridin-2-yl)piperazine-1-carbonyl]-1-oxa-2,8-diazaspiro[4.5]dec-2-ene-8-carboxylic acid-(2-fluorophenyl)amide] | 33.6% | 4.85% | 34.2% | 6.37% | – | – | – | –

Second part, the compound after the results:

inhibition at 10 µM (VR1 (human)) | activation at 10 µM (VR1 (human)) | inhibition at 10 µM [1] | activation at 10 µM [1] | VR1 (human) (% inhibition compared to 10 μM CP) (VR1 (human)) | VR1 (human) (% stimulation compared to 10 μM CP) (VR1 (human)) | VR1 (rat) (% inhibition compared to 10 μM CP) [1] | VR1 (rat) (% stimulation compared to 10 μM CP) [1] | SMILES
48.1% | 7.07% | 100% | 17.2% | – | – | – | – | CC(C)(C)c1ccc(NC(=O)N2CCC3(CC2)CC(C(=O)N2CCN(c4ncccc4C(F)(F)F)CC2)=NO3)cc1 [Example 228, 3-[4-(3-trifluoromethylpyridin-2-yl)piperazine-1-carbonyl]-1-oxa-2,8-diazaspiro[4.5]dec-2-ene-8-carboxylic acid-(4-tert-butylphenyl)amide]
24.9% | 16.4% | 58.1% | 6.55% | – | – | – | – | O=C(Nc1cccc(C(F)(F)F)c1)N1CCC2(CC1)CC(C(=O)N1CCN(c3ncccc3Cl)CC1)=NO2 [Example 68, 3-[4-(3-chloropyridin-2-yl)piperazine-1-carbonyl]-1-oxa-2,8-diazaspiro[4.5]dec-2-ene-8-carboxylic acid-(3-trifluoromethylphenyl)amide]
42% | 34.7% | 57.2% | 31.2% | – | – | – | – | O=C(Nc1ccc(C(F)(F)F)cc1)N1CCC2(CC1)CC(C(=O)N1CCN(c3ncccc3Cl)CC1)=NO2 [Example 71, 3-[4-(3-chloropyridin-2-yl)piperazine-1-carbonyl]-1-oxa-2,8-diazaspiro[4.5]dec-2-ene-8-carboxylic acid-(4-trifluoromethylphenyl)amide]
84.9% | 72.9% | 72.5% | 19.5% | – | – | – | – | CSc1ccc(NC(=O)N2CCC3(CC2)CC(C(=O)N2CCN(c4ncccc4Cl)CC2)=NO3)cc1 [Example 58, 3-[4-(3-chloropyridin-2-yl)piperazine-1-carbonyl]-1-oxa-2,8-diazaspiro[4.5]dec-2-ene-8-carboxylic acid-(4-methylsulphanylphenyl)amide]
77% | 42% | 95% | 59% | – | – | – | – | CC(C)(C)c1ccc(NC(=O)N2CCC3(CC2)CC(C(=O)N2CCN(c4ncccc4Cl)CC2)=NO3)cc1 [Example 116, 3-[4-(3-chloropyridin-2-yl)piperazine-1-carbonyl]-1-oxa-2,8-diazaspiro[4.5]dec-2-ene-8-carboxylic acid-(4-tert-butylphenyl)amide]

— US20080214807A1, “Substituted Spiro Compounds and their Use for Producing Drugs” (Gruenenthal GmbH, priority 2005, published 2008)
